Tests used:
MV-3 RFP cells = assay: T-cell TCB MV3 killing assay; assay type: cell-based, human; conditions: isomer A; for EC50: primary human T-cells + MCSP-TCB on MV-3 RFP cells, imaging over 120 hours, read-out: MSCP TCB killing MV-3 cells 5 d EC50; for Emax: Homo sapiens, MV-3, 120 h, read-out: MSCP TCB killing MV-3 cells 5 d Emax (%)
Description: All culturing steps are executed at 5% CO2, 37° C. and 95% humidity.
MV-3 RFP cells are cultured in MV-3 medium (DMEM+10% FBS, 1× PenStrep and 0.5 μg/mL Puromycin) for at least 3 weeks. Cultured MV-3 cells at 80% confluency are washed once with PBS−− and trypsinized until detached. Cells are then counted and resuspended to 1*10^5 cells/mL in T-cell medium (RPMI 1640+5% human serum+1 mM Sodium Pyruvate+50 μM 2-mercaptoethanol and 1× Pen-Strep). Cells are seeded with 100 μL/well into a 96-well plate (TTP, #92696), and placed for 40 minutes without moving at room temperature in order to achieve evenly distributed attachment of cells. Plates are then incubated until further use.
On the next day, expanded primary human T-cells are thawed and resuspended in T-cell medium to 4*10^6 cells/mL. For 3 hours, they are cultured in a 6-well plate with 6 mL per well at maximum. After culturing the T-cells, they are filtered through a cell strainer (Miltenyi Biotech, #130-041-407), counted again, and cell concentration is adjusted to 2*10^6 cells/mL.
MCSP-TCB or PBS are pre-diluted in T-cell medium (concentration depending on T-cell donor), 4 times more concentrated than the end-concentration. 60 μL/well of pre-dilutions are then distributed into a round bottom plate (Costar, #3799) according to plate layout. Compounds are added in a 9 pt dose response with the Tecan D300e Digital Dispenser, as well 4 times more concentrated than the end-concentration. DMSO concentration of all wells is adjusted to 0.8%, resulting in 0.2% as final concentration.
60 μL per well of T-cell suspension are added to the prepared round bottom plate and resuspended with a manual multichannel. 100 μL/well of the resuspended T-cell suspension including treatments are then transferred cautiously to the over-night cultured MV-3 cells according to plate layout. 100 μL T-cell medium only is added to the outer MV-3 wells only. Final compound DR is starting at 20 μM with a dilution factor of 3.333. Final TCB concentration is between […] and was determined for each T-cell donor individually by running TCB titrations. For each donor, a TCB concentration was chosen which corresponds to 10-20% of MV3 baseline cell killing in the absence of compound treatment. Positive control is the reference compound A1 which is added in a DR, as well as additional wells with only 20 μM. 20 μM of reference compound A1 represent the positive stimulator control, TCB only (DMSO wells) the neutral control.
After transfer of T-cells with treatment pre-dilutions, MV-3 cells are imaged by time-lapse microscopy using IncucyteZOOM™ (Essen BioScience, MI, USA). Imaging is performed every 3 hours for a total of 120 hours (10× objective, phase and red image channels, acquisition time 400 ms, Green/Red 4614 optical module). RFP object count per well is analysed in the IncucyteZOOM™ Software (Version 2019B Rev2) with a mask that was previously created and optimized for MV-3 cells. Raw data is exported as object count/well and values are normalized as % TCL compared to wells with MV-3 only, representing 100% growth and therefore 0% TCL.
Calculated 00 TCL values are analysed in Genedata Screener using Roche Normalization PCT_POS_CTRL with MCSP-TCB only set as Neutral Control and 20 μM of the reference compound A1 set as Stimulator Control/100%.
Induced TCL by compounds without TCB treatment or toxicity (observed in the PBS condition) were be flagged.

DGK α kinase = DGK α kinase (Homo sapiens, UniProt P23743); assay: In vitro DGK inhibition assay (ADP Glo) run by Reaction Biology Corp., DGK alpha; assay type: biochemical; conditions: isomer A, 2 nM kinase, 50 μM ATP, 500 uM DLG, 10-dose, 3-fold dilution starting at 1 μM, read-out: DGKalpha IC50
Description: DGK α and ζ kinase use ATP to phosphorylate the substrate 1,2-dilauroyl-sn-glycerol (DLG). ATP is converted to ADP as a result of this enzymatic reaction.
After the kinase reaction, an ATP-depletion reagent is added to terminate the kinase reaction and deplete any remaining ATP, leaving only ADP. Second, a detection reagent is added to simultaneously convert ADP to ATP and allow the newly synthesized ATP to be converted to light using a coupled luciferase/luciferin reaction.
DGK α and ζ kinase ADP Glo assays were ran by Reaction Biology Corp., 1 Great Valley Parkway, Suite 2, Malverm, 19355, PA, USA. Information provided by the service provider are the following: DGK α and ζ kinases were used at 2 nM final concentration. Reactions were carried out at 50 μM ATP. 500 uM of the substrate DLG (Dilauroyl-sn-glycerol) was used. Compounds were received at 10 mM DMSO stock solution and were tested in 10-dose IC50 duplicate with 3-fold serial dilution starting at 1 μM. A control compound, Calphostin C, was tested in 10-dose IC50 with 3-fold serial dilution starting at 100 μM.

[1] = target: T1, hDGKalpha(1-735)-N-His (DGKA) (Homo sapiens, UniProt P23743); assay: In vitro DGK inhibition assay (ADP-Glo, in house), DGK alpha; assay type: biochemical; conditions: isomer A; 4 nM DGK α, 25 μM ATP, 125 μM DLG in liposomes, 1 hour reaction; read-out: DGKalpha ADP Glo assay IC50
T1 construct: hDGKalpha(1-735)-N-His; His (N)
Procedure, shortened: (§1)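 Sf21-expressed full-length His-tagged enzymes (DGKA 4 nM, DGKZ 2 nM) phosphorylated 125 μM DLG in PS/PC liposomes with ATP at 25 μM (DGKA) or 50 μM (DGKZ). After 1 h, ADP was measured by ADP-Glo luminescence. Compounds: 11-point 1:3 dilutions from 10 mM top concentration.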

[2] = target: T2, hDGKzeta(1-928)-N-His (DGKZ) (Homo sapiens, UniProt Q13574); assay: In vitro DGK inhibition assay (ADP-Glo, in house), DGK zeta; assay type: biochemical; conditions: isomer A; 2 nM DGK ζ, 50 μM ATP, 125 μM DLG in liposomes, 1 hour reaction; read-out: DGKzeta ADP Glo assay IC50
T2 construct: hDGKzeta(1-928)-N-His; His (N)
Procedure, shortened: as §1

[3] = 20 μM reference compound A1 = 100%, MCSP-TCB only neutral control

T1 sequence (P23743 whole entry): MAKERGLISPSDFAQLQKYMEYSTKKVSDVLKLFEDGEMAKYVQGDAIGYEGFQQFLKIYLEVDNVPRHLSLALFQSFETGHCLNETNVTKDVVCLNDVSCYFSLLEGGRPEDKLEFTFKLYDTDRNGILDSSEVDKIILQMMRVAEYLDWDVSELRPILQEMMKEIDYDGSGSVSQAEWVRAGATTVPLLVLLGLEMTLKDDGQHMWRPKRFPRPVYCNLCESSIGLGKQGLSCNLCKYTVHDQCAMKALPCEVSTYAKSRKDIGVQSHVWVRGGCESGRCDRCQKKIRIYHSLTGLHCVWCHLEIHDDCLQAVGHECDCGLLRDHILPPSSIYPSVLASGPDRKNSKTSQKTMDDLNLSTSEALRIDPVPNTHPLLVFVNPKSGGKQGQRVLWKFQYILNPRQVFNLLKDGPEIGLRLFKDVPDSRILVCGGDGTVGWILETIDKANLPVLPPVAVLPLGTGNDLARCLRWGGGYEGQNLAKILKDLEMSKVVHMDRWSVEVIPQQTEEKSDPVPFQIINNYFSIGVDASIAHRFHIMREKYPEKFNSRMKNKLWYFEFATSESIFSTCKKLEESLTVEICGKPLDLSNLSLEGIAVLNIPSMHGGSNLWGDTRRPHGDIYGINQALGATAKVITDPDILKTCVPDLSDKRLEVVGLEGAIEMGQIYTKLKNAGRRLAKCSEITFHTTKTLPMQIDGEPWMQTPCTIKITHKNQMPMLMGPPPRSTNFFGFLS
Chain of DGK α kinase (P23743 whole entry): as above
T2 sequence (Q13574 whole entry): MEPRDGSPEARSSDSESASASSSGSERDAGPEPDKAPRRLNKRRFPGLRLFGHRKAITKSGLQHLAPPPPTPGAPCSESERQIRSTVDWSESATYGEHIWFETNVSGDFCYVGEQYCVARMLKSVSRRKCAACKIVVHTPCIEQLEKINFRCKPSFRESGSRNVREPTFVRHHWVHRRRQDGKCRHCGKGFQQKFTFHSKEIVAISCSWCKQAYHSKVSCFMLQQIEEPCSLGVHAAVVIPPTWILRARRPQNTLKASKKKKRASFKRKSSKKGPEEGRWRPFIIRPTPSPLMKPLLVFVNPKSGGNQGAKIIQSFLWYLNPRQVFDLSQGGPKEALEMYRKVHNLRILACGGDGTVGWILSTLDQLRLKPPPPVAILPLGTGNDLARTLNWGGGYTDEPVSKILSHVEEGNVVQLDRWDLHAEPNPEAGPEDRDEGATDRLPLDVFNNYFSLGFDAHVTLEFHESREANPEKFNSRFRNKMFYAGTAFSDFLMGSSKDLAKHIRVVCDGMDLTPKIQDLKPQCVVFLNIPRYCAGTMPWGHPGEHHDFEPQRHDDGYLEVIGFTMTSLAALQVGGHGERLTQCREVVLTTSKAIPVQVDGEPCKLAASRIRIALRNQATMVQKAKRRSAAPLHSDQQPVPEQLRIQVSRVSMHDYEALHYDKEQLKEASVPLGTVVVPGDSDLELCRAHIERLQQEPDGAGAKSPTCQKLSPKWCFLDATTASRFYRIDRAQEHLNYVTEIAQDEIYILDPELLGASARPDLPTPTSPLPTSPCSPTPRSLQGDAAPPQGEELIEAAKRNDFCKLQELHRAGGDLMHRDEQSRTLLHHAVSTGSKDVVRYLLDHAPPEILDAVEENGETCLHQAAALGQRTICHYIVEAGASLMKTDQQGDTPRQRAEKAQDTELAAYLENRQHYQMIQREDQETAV

IC50 (DGK α kinase) | IC50 [1] | IC50 [2] | Molecule | MSCP TCB killing MV-3 cells 5 d Emax (%) (MV-3 RFP cells; [3]) | EC50 (MV-3 RFP cells) | Emax (MV-3 RFP cells; [3])
124 nM | 16900 nM | 2400 nM | CC(C)(c1nnc(-c2cc3c(cc2F)C(F)(F)CC(N)C(=O)N3Cc2ccc(Oc3ccccc3)cc2)o1)S(C)(=O)=O (racemic) [Example 5, (3S)-3-amino-5,5,7-trifluoro-8-[5-(1-methyl-1-methylsulfonyl-ethyl)-1,3,4-oxadiazol-2-yl]-1-[(4-phenoxyphenyl)methyl]-3,4-dihydro-1-benzazepin-2-one and (3R)-3-amino-5,5,7-trifluoro-8-[5-(1-methyl-1-methylsulfonyl-ethyl)-1,3,4-oxadiazol-2-yl]-1-[(4-phenoxyphenyl)methyl]-3,4-dihydro-1-benzazepin-2-one] |  | 372 nM | 130%
43.6 nM | 9920 nM | 2360 nM | COc1ccc(-c2ccc(CN3C(=O)[C@H](N)CC(F)(F)c4cc(F)c(-c5nnc(C(C)(C)C#N)o5)cc43)cc2)cc1 (single isomer, unassigned) [Example 9] |  |  | 92%
108 nM | 24600 nM | 2900 nM | CC(C)(C#N)c1nnc(-c2cc3c(cc2F)C(F)(F)C[C@@H](N)C(=O)N3Cc2ccc(-c3ccc(C(F)(F)F)cn3)cc2)o1 (single isomer, unassigned) [Example 12] |  |  | 103%

Molecule | IC50 (DGK α kinase) | IC50 [1] | IC50 [2] | MSCP TCB killing MV-3 cells 5 d Emax (%) (MV-3 RFP cells; [3]) | EC50 (MV-3 RFP cells) | Emax (MV-3 RFP cells; [3])
2-methyl-2-[5-[(3S)-3-amino-5,5,7-trifluoro-2-oxo-1-[[4-(trifluoromethoxy)phenyl]methyl]-3,4-dihydro-1-benzazepin-8-yl]-1,3,4-oxadiazol-2-yl]propanenitrile and 2-methyl-2-[5-[(3R)-3-amino-5,5,7-trifluoro-2-oxo-1-[[4-(trifluoromethoxy)phenyl]methyl]-3,4-dihydro-1-benzazepin-8-yl]-1,3,4-oxadiazol-2-yl]propanenitrile [Example 2] | 10.5 nM | 1400 nM | 1810 nM | 93% | 43 nM | 
